From ChEMBL document CHEMBL5523722, “Design, Synthesis, and Activity Evaluation of Novel Benzazole Bifunctional Antifungal Inhibitors with an LDH Carrier” (J Med Chem, 2024)
In brackets after ≈: the same amount, converted by molar mass.

How the values were obtained:
Cryptococcus neoformans = assay: microbe, parasite or virus in culture; settings: ZKCC 2209, 64 h
Description: Antifungal activity against Cryptococcus neoformans ZKCC 2209 assessed as inhibition of fungal growth incubated for 64 hrs by liquid medium dilution method

Candida tropicalis = assay: microbe, parasite or virus in culture; settings: ATCC 1369, 64 h
Description: Antifungal activity against Candida tropicalis ATCC 1369 assessed as inhibition of fungal growth incubated for 64 hrs by liquid medium dilution method

Aspergillus fumigatus = assay: microbe, parasite or virus in culture; settings: KM8001, 64 h
Description: Antifungal activity against Aspergillus fumigatus KM8001 assessed as inhibition of fungal growth incubated for 64 hrs by liquid medium dilution method

Nakaseomyces glabratus = assay: microbe, parasite or virus in culture; settings: 64 h
Description: Antifungal activity against Candida glabrata assessed as inhibition of fungal growth incubated for 64 hrs by liquid medium dilution method

Candida albicans [1] = assay: microbe, parasite or virus in culture; settings: ATCC SC5314, 64 h
Description: Antifungal activity against Candida albicans ATCC SC5314 assessed as inhibition of fungal growth incubated for 64 hrs by liquid medium dilution method

[2] = target: Lanosterol 14-alpha demethylase (Candida albicans (strain SC5314 / ATCC MYA-2876) (Yeast), UniProt P10613)
Description: Inhibition of candida albicans CYP51 14alpha demethylase activity incubated for 30 mins by HPLC analysis

Candida albicans [3] = assay: microbe, parasite or virus in culture; settings: 17#, 64 h
Description: Antifungal activity against fluconazole-resistant Candida albicans 17# assessed as inhibition of fungal growth incubated for 64 hrs by liquid medium dilution method

Candida albicans [4] = assay: microbe, parasite or virus in culture; settings: Candida albicans, 901, 64 h
Description: Antifungal activity against fluconazole-resistant Candida albicans 901 assessed as inhibition of fungal growth incubated for 64 hrs by liquid medium dilution method

Candida albicans [5] = assay: microbe, parasite or virus in culture; settings: Candida albicans, 904, 64 h
Description: Antifungal activity against fluconazole-resistant Candida albicans 904 assessed as inhibition of fungal growth incubated for 64 hrs by liquid medium dilution method

Candida albicans [6] = assay: microbe, parasite or virus in culture; settings: Candida albicans, 632, 64 h
Description: Antifungal activity against fluconazole-resistant Candida albicans 632 assessed as inhibition of fungal growth incubated for 64 hrs by liquid medium dilution method

Candida albicans [7] = assay: microbe, parasite or virus in culture; settings: CaR, 64 h
Description: Antifungal activity against fluconazole-resistant Candida albicans CaR assessed as inhibition of fungal growth incubated for 64 hrs by liquid medium dilution method

Sequence of Lanosterol 14-alpha demethylase (P10613 whole entry): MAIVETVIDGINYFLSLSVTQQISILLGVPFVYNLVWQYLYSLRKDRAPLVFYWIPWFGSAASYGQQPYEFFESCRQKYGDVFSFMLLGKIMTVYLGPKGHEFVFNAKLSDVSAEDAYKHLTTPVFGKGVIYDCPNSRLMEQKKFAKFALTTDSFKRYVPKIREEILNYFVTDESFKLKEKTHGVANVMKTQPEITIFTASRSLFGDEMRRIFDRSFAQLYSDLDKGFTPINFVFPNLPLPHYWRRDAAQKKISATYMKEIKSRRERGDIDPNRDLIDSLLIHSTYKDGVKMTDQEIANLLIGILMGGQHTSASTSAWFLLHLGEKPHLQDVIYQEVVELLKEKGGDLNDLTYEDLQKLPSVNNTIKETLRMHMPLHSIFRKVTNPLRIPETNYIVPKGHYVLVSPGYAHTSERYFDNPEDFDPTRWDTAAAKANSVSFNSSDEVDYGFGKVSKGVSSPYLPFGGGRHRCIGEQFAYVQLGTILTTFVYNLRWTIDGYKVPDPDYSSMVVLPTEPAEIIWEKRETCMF

SMILES	MIC50 (Cryptococcus neoformans) [µg/mL]	MIC50 (Candida tropicalis) [µg/mL]	MIC50 (Aspergillus fumigatus) [µg/mL]	MIC50 (Nakaseomyces glabratus) [µg/mL]	MIC50 (Candida albicans [1]) [µg/mL]	IC50 [2] [µM]	MIC50 (Candida albicans [3]) [µg/mL]	MIC50 (Candida albicans [4]) [µg/mL]	MIC50 (Candida albicans [5]) [µg/mL]	MIC50 (Candida albicans [6]) [µg/mL]	MIC50 (Candida albicans [7]) [µg/mL]
Cc1c(CN2CCCC(C(=O)NCC(Cc3ccccc3)Cn3cncn3)C2)cccc1-c1ccccc1 (centres undefined)	≥ 8	0.5 (≈ 0.985 µM)	≥ 8	0.5 (≈ 0.985 µM)	0.25 (≈ 0.492 µM)						
O=C(NCC(Cc1ccccc1)Cn1cncn1)C1CCCN(Cc2ccc(-c3ccccc3)cc2)C1 (centres undefined)	2 (≈ 4.05 µM)	1 (≈ 2.03 µM)	4 (≈ 8.1 µM)	2 (≈ 4.05 µM)	0.5 (≈ 1.01 µM)						
Cc1c(CN2CCC(CNCC(O)(Cn3cncn3)c3ccc(Cl)cc3Cl)CC2)cccc1-c1ccccc1 (centres undefined)	2 (≈ 3.54 µM)	2 (≈ 3.54 µM)	≥ 8	1 (≈ 1.77 µM)	2 (≈ 3.54 µM)						
Cc1c(CN2CCCC(C(=O)NCC(Cc3ccccc3)Cn3ccnc3)C2)cccc1-c1ccccc1 (centres undefined)	2 (≈ 3.95 µM)	1 (≈ 1.97 µM)	4 (≈ 7.89 µM)	2 (≈ 3.95 µM)	0.5 (≈ 0.987 µM)						
Cc1c(CN2CCCC(C(=O)NCC(O)(Cn3ccnc3)c3ccc(Cl)cc3Cl)C2)cccc1-c1ccccc1 (centres undefined)	≥ 8	0.5 (≈ 0.866 µM)	≥ 8	1 (≈ 1.73 µM)	0.5 (≈ 0.866 µM)						
Cc1c(CN2CCCC(C(=O)NCC(O)(Cn3ccnc3)c3ccc(Cl)cc3)C2)cccc1-c1ccccc1 (centres undefined)	4 (≈ 7.36 µM)	2 (≈ 3.68 µM)	≥ 8	1 (≈ 1.84 µM)	1 (≈ 1.84 µM)						
Cc1c(CN2CCC(NCC(O)(Cn3ccnc3)c3ccc(Cl)cc3)CC2)cccc1-c1ccccc1 (centres undefined)	2 (≈ 3.88 µM)	0.5 (≈ 0.971 µM)	4 (≈ 7.77 µM)	1 (≈ 1.94 µM)	0.25 (≈ 0.485 µM)						
Cc1c(CN2CCC(NCC(O)(Cn3ccnc3)c3ccc(Cl)cc3Cl)CC2)cccc1-c1ccccc1 (centres undefined)	1 (≈ 1.82 µM)	0.5 (≈ 0.91 µM)	4 (≈ 7.28 µM)	0.5 (≈ 0.91 µM)	0.125 (≈ 0.227 µM)	0.157	2 (≈ 3.64 µM)	4 (≈ 7.28 µM)	2 (≈ 3.64 µM)	2 (≈ 3.64 µM)	4 (≈ 7.28 µM)
Cc1c(CN2CCC(CNCC(O)(Cn3ccnc3)c3ccc(Cl)cc3)CC2)cccc1-c1ccccc1 (centres undefined)	2 (≈ 3.78 µM)	1 (≈ 1.89 µM)	≥ 8	0.5 (≈ 0.945 µM)	1 (≈ 1.89 µM)						
O=C(NCC(Cc1ccccc1)Cn1ccnc1)C1CCCN(Cc2ccc(-c3ccccc3)cc2)C1 (centres undefined)	4 (≈ 8.12 µM)	2 (≈ 4.06 µM)	≥ 8	0.5 (≈ 1.01 µM)	1 (≈ 2.03 µM)						
Cc1c(CN2CCC(NCC(O)(Cn3cncn3)c3ccc(Cl)cc3)CC2)cccc1-c1ccccc1 (centres undefined)	0.5 (≈ 0.969 µM)	0.25 (≈ 0.484 µM)	2 (≈ 3.88 µM)	0.25 (≈ 0.484 µM)	0.25 (≈ 0.484 µM)	0.113	1 (≈ 1.94 µM)	2 (≈ 3.88 µM)	2 (≈ 3.88 µM)	1 (≈ 1.94 µM)	2 (≈ 3.88 µM)
Cc1c(CN2CCC(NCC(O)(Cn3cncn3)c3ccc(Cl)cc3Cl)CC2)cccc1-c1ccccc1 (centres undefined)	2 (≈ 3.63 µM)	2 (≈ 3.63 µM)	4 (≈ 7.27 µM)	1 (≈ 1.82 µM)	0.5 (≈ 0.908 µM)						
Cc1c(CN2CCC(CNCC(O)(Cn3cncn3)c3ccc(Cl)cc3)CC2)cccc1-c1ccccc1 (centres undefined)	4 (≈ 7.55 µM)	0.5 (≈ 0.943 µM)	≥ 8	1 (≈ 1.89 µM)	0.5 (≈ 0.943 µM)						
Cc1c(CN2CCCC(C(=O)NCC(O)(Cn3cncn3)c3ccc(Cl)cc3)C2)cccc1-c1ccccc1 (centres undefined)	1 (≈ 1.84 µM)	0.25 (≈ 0.459 µM)	4 (≈ 7.35 µM)	0.5 (≈ 0.919 µM)	0.25 (≈ 0.459 µM)	0.256	2 (≈ 3.68 µM)	≥ 8	4 (≈ 7.35 µM)	4 (≈ 7.35 µM)	≥ 8
Cc1c(CN2CCCC(C(=O)NCC(O)(Cn3cncn3)c3ccc(Cl)cc3Cl)C2)cccc1-c1ccccc1 (centres undefined)	4 (≈ 6.91 µM)	2 (≈ 3.46 µM)	≥ 8	0.5 (≈ 0.864 µM)	0.5 (≈ 0.864 µM)						
Cc1c(CN2CCC(CNCC(O)(Cn3ccnc3)c3ccc(Cl)cc3Cl)CC2)cccc1-c1ccccc1 (centres undefined)	4 (≈ 7.1 µM)	2 (≈ 3.55 µM)	4 (≈ 7.1 µM)	0.5 (≈ 0.887 µM)	1 (≈ 1.77 µM)						
OC(Cn1cncn1)(Cn1cncn1)c1ccc(F)cc1F [FLUCONAZOLE]	2 (≈ 6.53 µM)	0.5 (≈ 1.63 µM)	≥ 8	0.5 (≈ 1.63 µM)	0.5 (≈ 1.63 µM)	0.098	≥ 8	≥ 8	≥ 8	≥ 8	≥ 8
CC(=O)N1CCN(c2ccc(OCC3COC(Cn4ccnc4)(c4ccc(Cl)cc4Cl)O3)cc2)CC1 (centres undefined) [KETOCONAZOLE]	1 (≈ 1.88 µM)	0.25 (≈ 0.47 µM)	4 (≈ 7.53 µM)	0.5 (≈ 0.941 µM)	0.25 (≈ 0.47 µM)		2 (≈ 3.76 µM)	4 (≈ 7.53 µM)	≥ 8	≥ 8	4 (≈ 7.53 µM)
